Results published in patent US10952940B2, “Reagents and methods for mineralization of tooth enamel” (UNIVERSITY OF WASHINGTON, priority 2016, dated 2021).

Tests used:
[1] = In vitro re-mineralization of tea-stained rat tooth using the peptide solution; conditions: tea-stained rat tooth quarter; peptide 10 min 37° C., then CaCl2/KH2PO4 16 hours
Procedure: Rat teeth (molars) were obtained from sacrificed rats (for example, Sprague Dawley rats, age 3 weeks or older) from animal facility, collected, and stored in 100% alcohol. Prior to the re-mineralization experiments the teeth were stored in 1% bleach for 24 hours. […] The teeth were then dried in an incubator in air at 37° C. for 3-6 hours to produce dry surface. The root site and section the crown were removed vertically using a diamond blade. Pictures were taken with camera attached to optical microscope. Exposed dentine sites in the one half of the sectioned tooth were etched with 35% phosphoric acid (Ultraetch™) for 60 seconds (to facilitate the stain intake). The etching gel was removed by rinsing the sample with distilled water for 3 minutes. The staining solution was prepared by boiling 2 g of tea in 100 ml of deionized water for 5 minutes, and then cooled down to room temperature and filtered. The tooth sample was soaked in the staining solution and incubated at 37° C. at 150 rpm for 24 hours. The tooth was removed from the staining solution and sonicated for 30 seconds in deionized water (sonic bath) to remove the excess amount of tea particles attached to tooth extrinsically. The one half of the sectioned tooth was cut vertically into half again to form two quarter sections of the tooth. A second set of pictures were taken with camera attached to optical microscope. […]

[2] = Solution mineralization approach, color measurements with Chroma Meter; design: species or system human; conditions: peptide 10 min, calcium/phosphate ions 2 hours, 37° C.; 25 rounds
Description: The root site of an extracted human tooth was removed and the crown portion of the tooth was sectioned vertically into half. A thin layer of enamel was removed from one half of the sectioned tooth such that the dentin layer is exposed without completely removing the enamel on the tooth. This allowed imaging of the enamel surfaces after the mineralization experiment without the problem of surface reflection, and provides a more parallel surface from which to compare the whiteness results. The sectioned tooth was fixed onto a glass slide with epoxy. Initial color measurements of each of the four sides of the sectioned tooth were obtained using a Minolta Chroma Meter CR-200 (Konica Minolta, Tokyo, Japan), according to manufacturer instructions, using a white background and a black background. The sectioned tooth was incubated in a mineralization polypeptide solution for 10 minutes at 37° C. and then in a solution with calcium ions and phosphate ions for 2 hours at 37° C. Color measurements of each of the four sides of the sample were taken as described initially. The sectioned was rinsed with deionized water and the remineralization process (incubation in polypeptide solution, incubation in solution of ion sources, and rinsing with deionized water) was repeated for a total of 25 rounds. The mineralization polypeptide was SYENSHSQAINVDRT (shADP5; SEQ ID NO:16).

[3] = Solution mineralization approach on tetracycline-stained teeth, Mean Pixel Intensity; design: species or system human; conditions: repeated rounds of remineralization
Description: Human teeth, donated by the University of Washington School of Dentistry (Seattle, Wash., USA), were selected for their clean, smooth surfaces. The teeth were sterilized in bleach, cut on a diamond blade to remove the root, and halved. A thin layer of the enamel surface was then cut on one of the halves parallel to the previous cut, such that the dentin layer could be seen without completely removing the enamel on the tooth. This allowed imaging of the enamel surfaces after the mineralization experiment without the problem of surface reflection encountered in previous experiments, in addition to a more parallel surface from which to compare the brightness or whiteness results. The cut enamel side of the tooth sample was then sonicated in DI water and polished on diamond slurry smooth out the surface for imaging. The sample was then cut into quarters, with the lower half selected for a tetracycline experiment because of the even distribution of dentin coloring in the lower quarters of the tooth sample. The samples were then stained in 10 mg/mL tetracycline solution for five days.
During mineralization, using a 96-well plate, one of the stained halves was stored in […] Tris (24 mM) as a negative control, and the experimental sample was incubated in 150 μL shADP5 (0.8 mM) at 37° C. for 10 minutes. […]

With “SYENSHSQAINVDRT [shADP5, 15-amino acid long amelogenin-derived peptide, shortened human ADP5]” the “tooth color compared with control” value [1] was “lighter in color than the control”, the “whiteness of the tooth enamel” value [2] was “improved with each round of remineralization” and the “whiteness of the stained tooth” value [3] was “improves with repeated rounds of remineralization”.
